Assay results taken from patent publication US20240199587A1, “HETEROCYCLIC COMPOUNDS” (Hoffmann-La Roche Inc., priority 2021, published 2024).

The molecules below were run against T1, MAGL (Homo sapiens, UniProt Q99685) (assay: 2-AG assay (MAGL inhibitory activity, hydrolysis of 2-arachidonoylglycerol to arachidonic acid followed by mass spectrometry)). Details: 8 μM 2-arachidonoylglycerol, 15 min pre-incubation, 30 min incubation at RT, RapidFire MS readout.
T1 sequence (Q99685 1-303): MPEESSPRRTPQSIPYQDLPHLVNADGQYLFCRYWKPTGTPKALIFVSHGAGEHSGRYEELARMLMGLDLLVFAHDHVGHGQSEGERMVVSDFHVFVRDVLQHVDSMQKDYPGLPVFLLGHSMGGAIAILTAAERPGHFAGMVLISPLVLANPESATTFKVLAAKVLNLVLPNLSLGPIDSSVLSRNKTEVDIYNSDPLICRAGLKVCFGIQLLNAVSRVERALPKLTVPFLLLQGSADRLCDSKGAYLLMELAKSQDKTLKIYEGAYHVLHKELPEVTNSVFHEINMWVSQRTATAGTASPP
Assay type: biochemical
In short: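 Human MAGL ([…] final) pre-incubated 15 min at RT with compound in 50 mM TRIS, 1 mM EDTA, 0.01% Tween-20, 2.5% DMSO; 8 μM 2-AG then added for 30 min at RT. Acetonitrile quench with d8-arachidonic acid; arachidonic acid measured by RapidFire SPE–MS/MS, activity from arachidonic acid/d8 ratio.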

| Compound | IC50 [nM] |
| --- | --- |
| O=C(N1CC(c2nnc(C3(C(F)(F)F)CC3)o2)C1)N1CC2(CC(n3cnc(C4CC4)n3)C2)C1 [Example 145, [6-(3-cyclopropyl-1,2,4-triazol-1-yl)-2-azaspiro[3.3]heptan-2-yl]-[3-[5-[1-(trifluoromethyl)cyclo-propyl]-1,3,4-oxadiazol-2-yl]azetidin-1-yl]methanone] | 541 |
| O=C(N1CC(C#Cc2ccccc2C(F)F)C1)N1CC2(CC(n3cnc(C4CC4)n3)C2)C1 [Example 107, [6-(3-cyclopropyl-1,2,4-triazol-1-yl)-2-azaspiro[3.3]heptan-2-yl]-[3-[2-[2-(difluoromethyl)phenyl]ethynyl]azetidin-1-yl]methanone] | 4.7 |
| O=C(N1CC2(CC(Cc3ccc(C(F)(F)F)nc3)C2)C1)N1CC2(CC(n3cnc(C4(O)CC4)n3)C2)C1 [Example 495, [6-[3-(1-hydroxycyclopropyl)-1,2,4-triazol-1-yl]-2-azaspiro[3.3]heptan-2-yl]-[6-[[6-(trifluoromethyl)-3-pyridyl]methyl]-2-azaspiro[3.3]heptan-2-yl]methanone] | 0.98 |
| O=C(N1CC2(CCC(Cc3ccc(Cl)cn3)CC2)C1)N1CC2(CC(c3ccc(C(F)(F)F)nc3)C2)C1 [Example 517, [7-[(5-chloro-2-pyridyl)methyl]-2-azaspiro[3.5]nonan-2-yl]-[6-[6-(trifluoromethyl)-3-pyridyl]-2-azaspiro[3.3]heptan-2-yl]methanone] | 299 |
| O=C(N1CC(Oc2ccc(C3CC3)nc2F)C1)N1CC2(CC(n3cnc(C4CC4)n3)C2)C1 [Example 208, [3-[(6-cyclopropyl-2-fluoro-3-pyridyl)oxy]azetidin-1-yl]-[6-(3-cyclopropyl-1,2,4-triazol-1-yl)-2-azaspiro[3.3]heptan-2-yl]methanone] | 1.1 |
| O=C(N1C[C@H]2CC(Oc3ccc(C(F)(F)F)cc3F)C[C@H]2C1)N1CC2(CC(n3cnc(C4CC4)n3)C2)C1 (mixture of isomers) [Example 89, [6-(3-cyclopropyl-1,2,4-triazol-1-yl)-2-azaspiro[3.3]heptan-2-yl]-[rac-(3aS,6aR)-5-[2-fluoro-4-(trifluoromethyl)phenoxy]-3,3a,4,5,6,6a-hexahydro-1H-cyclopenta[c]pyrrol-2-yl]methanone] | 2.5 |
| O=C(N1CC2(CC(n3cnc(C4CC4)n3)C2)C1)N1CC2(C1)CN(S(=O)(=O)CCc1ccc(F)cc1)C2 [Example 272, [6-(3-cyclopropyl-1,2,4-triazol-1-yl)-2-azaspiro[3.3]heptan-2-yl]-[2-[2-(4-fluorophenyl)ethylsulfonyl]-2,6-diazaspiro[3.3]heptan-6-yl]methanone] | 34.3 |
| CC(C)(C)c1nc(-c2ccc(C(=O)N3CC4(CC(n5cc(C6CC6)cn5)C4)C3)cc2)no1 [Example 7, [4-(5-tert-butyl-1,2,4-oxadiazol-3-yl)phenyl]-[6-(4-cyclopropylpyrazol-1-yl)-2-azaspiro[3.3]heptan-2-yl]methanone] | 215 |
| O=C(N1CC2(CC(n3cnc(C4CC4)n3)C2)C1)C12CCC(COCC3(C(F)(F)F)CC3)(CC1)C2 [compound 161, [6-(3-cyclopropyl-1,2,4-triazol-1-yl)-2-azaspiro[3.3]heptan-2-yl]-[4-[[1-(trifluoromethyl)cyclopropyl]methoxymethyl]norbornan-1-yl]methanone] | 184 |
| O=C(N1CC2(CC(n3cnc(C4CC4)n3)C2)C1)N1CC2(CC(n3ncnc3C3CC3)C2)C1 [Example 450, [6-(3-cyclopropyl-1,2,4-triazol-1-yl)-2-azaspiro[3.3]heptan-2-yl]-[6-(5-cyclopropyl-1,2,4-triazol-1-yl)-2-azaspiro[3.3]heptan-2-yl]methanone] | 71.4 |
| CC(C)(C)Cc1nc(-c2ccc(C(=O)N3CC4(CC(n5cnc(C6CC6)n5)C4)C3)cc2)no1 [Example 88, [6-(3-cyclopropyl-1,2,4-triazol-1-yl)-2-azaspiro[3.3]heptan-2-yl]−[4-[5-(2,2-dimethylpropyl)-1,2,4-oxadiazol-3-yl]phenyl]methanone] | 1.1 |
| O=C(N1CC2(CC(NS(=O)(=O)c3cccc(C(F)(F)F)c3)C2)C1)N1CC2(CC(n3cnc(C(F)(F)F)n3)C2)C1 [Example 454, 3-(trifluoromethyl)-N-[2-[6-[3-(trifluoromethyl)-1,2,4-triazol-1-yl]-2-azaspiro[3.3]heptane-2-carbonyl]-2-azaspiro[3.3]heptan-6-yl]benzenesulfonamide] | 0.71 |
| O=C(N1CC(CNS(=O)(=O)c2ccc(C(F)(F)F)cc2)C1)N1CC2(CC(n3cnc(C4CC4)n3)C2)C1 [Example 276, N-[[1-[6-(3-cyclopropyl-1,2,4-triazol-1-yl)-2-azaspiro[3.3]heptane-2-carbonyl]azetidin-3-yl]methyl]-4-(trifluoromethyl)benzene-sulfonamide] | 35.7 |
| O=C(N1CC(C#Cc2ccccc2C(F)F)C1)N1CC2(CC(n3cnc(C4CC4)c3)C2)C1 [Example 139, [6-(4-cyclopropylimidazol-1-yl)-2-azaspiro[3.3]heptan-2-yl]−[3-[2-[2-(difluoromethyl)phenyl]ethynyl]azetidin-1-yl]methanone] | 11.5 |
| O=C(N1CC2(CCN(Cc3ccc(C(F)(F)F)cn3)CC2)C1)N1CC2(CC(n3cnc(C4(O)CC4)n3)C2)C1 [Example 391, [6-[3-(1-hydroxycyclopropyl)-1,2,4-triazol-1-yl]-2-azaspiro[3.3]heptan-2-yl]-[7-[[5-(trifluoromethyl)-2-pyridyl]methyl]-2,7-diazaspiro[3.5]nonan-2-yl]methanone] | 14.1 |
| O=C(N1CC(c2cnc(N3CC(C(F)(F)F)C3)nc2)C1)N1CC2(CC(n3cnc(C(F)(F)F)n3)C2)C1 [Example 423, [3-[2-[3-(trifluoromethyl)azetidin-1-yl]pyrimidin-5-yl]azetidin-1-yl]-[6-[3-(trifluoromethyl)-1,2,4-triazol-1-yl]-2-azaspiro[3.3]heptan-2-yl]methanone] | 38.5 |
| Cc1cc(C)n(C23CC(C4CN(C(=O)N5CC6(CC(n7cnc(C8(O)CC8)n7)C6)C5)C4)(C2)C3)n1 [Example 356, [3-[3-(3,5-dimethylpyrazol-1-yl)-1-bicyclo[1.1.1]pentanyl]azetidin-1-yl]-[6-[3-(1-hydroxycyclopropyl)-1,2,4-triazol-1-yl]-2-azaspiro[3.3]heptan-2-yl]methanone] | 1090 |
| O=C(N1CC(Oc2ccc(C(F)(F)F)c(C3CC3)c2)C1)N1CC2(CC(n3cnc(C4CC4)n3)C2)C1 [Example 187, [6-(3-cyclopropyl-1,2,4-triazol-1-yl)-2-azaspiro[3.3]heptan-2-yl]-[3-[3-cyclopropyl-4-(trifluoromethyl)phenoxy]azetidin-1-yl]methanone] | 0.2 |
| O=C(N1CC2(CC(n3cnc(C4(O)CC4)n3)C2)C1)N1CC2(CCN(Cc3ccc(S(=O)(=O)C(F)(F)F)cc3)C2)C1 [Example 369, [6-[3-(1-hydroxycyclopropyl)-1,2,4-triazol-1-yl]-2-azaspiro[3.3]heptan-2-yl]-[7-[[4-(trifluoromethylsulfonyl)phenyl]methyl]-2,7-diazaspiro[3.4]octan-2-yl]methanone] | 49.3 |
| O=C(N1CC2(CC(OCC(F)(F)F)C2)C1)N1CC2(CC(n3cnc(C4CC4)n3)C2)C1 [Example 65, [6-(3-cyclopropyl-1,2,4-triazol-1-yl)-2-azaspiro[3.3]heptan-2-yl]-[6-(2,2,2-trifluoroethoxy)-2-azaspiro[3.3]heptan-2-yl]methanone] | 83.2 |
| O=C(N1CC2(CC(n3cnc(C4CC4)n3)C2)C1)N1CC2(C1)CN(S(=O)(=O)N1CCCCC1)C2 [Example 237, [6-(3-cyclopropyl-1,2,4-triazol-1-yl)-2-azaspiro[3.3]heptan-2-yl]-[2-(1-piperidylsulfonyl)-2,6-diazaspiro[3.3]heptan-6-yl]methanone] | 6.4 |
| CC1(Cc2nnc(-c3ccc(C4CN(C(=O)N5CC6(CC(n7cnc(C8CC8)n7)C6)C5)C4)cc3)[nH]2)CC1 [Example 448, [6-(3-cyclopropyl-1,2,4-triazol-1-yl)-2-azaspiro[3.3]heptan-2-yl]-[3-[4-[5-[(1-methylcyclopropyl)methyl]-4H-1,2,4-triazol-3-yl]phenyl]azetidin-1-yl]methanone] | 0.93 |
| CS(=O)(=O)c1cc(O[C@H]2C[C@@H]3CN(C(=O)N4CC5(CC(n6cnc(C7CC7)n6)C5)C4)C[C@@H]3C2)ccc1F [Example 130, [6-(3-cyclopropyl-1,2,4-triazol-1-yl)-2-azaspiro[3.3]heptan-2-yl]-[rac-(3aS,6aR)-5-(4-fluoro-3-methylsulfonyl-phenoxy)-3,3a,4,5,6,6a-hexahydro-1H-cyclopenta[c]pyrrol-2-yl]methanone] | 47.6 |
| O=C(N1CC(c2ccc(NC3CCS(=O)(=O)C3)nc2)C1)N1CC2(CC(n3cnc(C4CC4)n3)C2)C1 (centres unmarked) [Example 505, [6-(3-cyclopropyl-1,2,4-triazol-1-yl)-2-azaspiro[3.3]heptan-2-yl]-[3-[6-[(1,1-dioxothiolan-3-yl)amino]-3-pyridyl]azetidin-1-yl]methanone] | 32.3 |
| O=C(N1CC(n2cc(OCC(F)(F)F)cn2)C1)N1CC2(CC(n3cnc(C4CC4)c3)C2)C1 [Example 144, [6-(4-cyclopropylimidazol-1-yl)-2-azaspiro[3.3]heptan-2-yl]-[3-[4-(2,2,2-trifluoroethoxy)pyrazol-1-yl]azetidin-1-yl]methanone] | 602 |
| O=C(N1CC2(CC(n3cnc(C4CC4)n3)C2)C1)N1CC2(C1)CN(C(=O)C(F)(F)F)C2 [Example 337, 1-[2-[6-(3-cyclopropyl-1,2,4-triazol-1-yl)-2-azaspiro[3.3]heptane-2-carbonyl]-2,6-diazaspiro[3.3]heptan-6-yl]-2,2,2-trifluoro-ethanone] | 1830 |
